# Results from ChEMBL document CHEMBL2040720, “Potent CXCR4 antagonists containing amidine type Peptide bond isosteres” (ACS Med Chem Lett, 2011).
# Calls of active or inactive are those of the source. The calls are words filed in the database; no cut-off is given here.
# Experiments:
# [1] = target: Atypical chemokine receptor 3 (Homo sapiens) (UniProt P25106); assay: Inhibition of CXCR7 interaction with SDF1alpha
# [2] = tested on: Human immunodeficiency virus 1; assay: Antiviral activity against CCR5-tropic Human immunodeficiency virus 1 Ba-L infected in human HeLa cells assessed as inhibition of viral replication at 10 uM after 48 hrs by MAGI assay; format: functional, organism-based
# [3] = tested on: Human immunodeficiency virus 1; assay: Antiviral activity against Human immunodeficiency virus 1 NL4.3 infected in human HeLa cells assessed as inhibition of viral replication after 48 hrs by MAGI assay; format: functional, organism-based; settings: Human immunodeficiency virus 1, NL4.3, HeLa
# [4] = tested on: Human immunodeficiency virus 1; assay: Antiviral activity against Human immunodeficiency virus 1 3B infected in human HeLa cells assessed as inhibition of viral replication after 48 hrs by MAGI assay; format: functional, organism-based
# HeLa = assay: Cytotoxicity against human HeLa cells at 10 uM by MAGI assay; format: cell-based
# [5] = target: C-X-C chemokine receptor type 4 (Homo sapiens, UniProt P61073); assay: Displacement of [125I]-SDF-1alpha from CXCR4 receptor expressed in HEK293 cells after 1 hr by scintillation counting; format: cell-based
# C-X-C chemokine receptor type 4, sequence (P61073 whole entry): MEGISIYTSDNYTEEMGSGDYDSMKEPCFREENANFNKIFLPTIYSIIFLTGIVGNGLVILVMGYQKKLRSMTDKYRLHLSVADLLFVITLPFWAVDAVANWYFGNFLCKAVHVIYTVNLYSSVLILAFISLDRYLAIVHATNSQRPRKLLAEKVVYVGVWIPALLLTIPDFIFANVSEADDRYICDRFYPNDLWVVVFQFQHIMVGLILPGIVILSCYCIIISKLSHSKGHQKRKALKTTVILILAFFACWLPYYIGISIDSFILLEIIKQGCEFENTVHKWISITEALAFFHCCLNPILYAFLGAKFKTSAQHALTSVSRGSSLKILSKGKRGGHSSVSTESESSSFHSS
# Atypical chemokine receptor 3 (Homo sapiens), sequence (P25106 whole entry): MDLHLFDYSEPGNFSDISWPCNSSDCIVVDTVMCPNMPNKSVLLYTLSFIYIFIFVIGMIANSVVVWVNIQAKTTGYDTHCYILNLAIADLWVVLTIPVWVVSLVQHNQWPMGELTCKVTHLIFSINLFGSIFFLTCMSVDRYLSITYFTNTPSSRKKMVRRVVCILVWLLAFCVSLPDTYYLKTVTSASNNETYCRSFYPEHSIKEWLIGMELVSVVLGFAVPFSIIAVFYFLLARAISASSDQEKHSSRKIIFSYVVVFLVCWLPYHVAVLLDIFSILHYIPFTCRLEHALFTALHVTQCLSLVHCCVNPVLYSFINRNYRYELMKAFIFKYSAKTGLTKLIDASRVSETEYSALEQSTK
inhibition [1],EC50 [3],EC50 [4],IC50 [5],Structure (SMILES),Activity [2],Activity (HeLa)
inactive,248 nM,238 nM,,N=C(N)NCCC[C@@H]1NC(=N)[C@H](Cc2ccc(O)cc2)NC(=O)CNC(=O)[C@H](Cc2ccc3ccccc3c2)NC(=O)[C@H](CCCNC(=N)N)NC1=O,inactive,
,21 nM,21 nM,,N=C(N)NCCC[C@@H]1NC(=O)[C@H](CCCNC(=N)N)NC(=O)[C@@H](Cc2ccc(O)cc2)NC(=O)CNC(=O)[C@H](Cc2ccc3ccccc3c2)NC1=O,inactive,
inactive,1.3 nM,0.61 nM,,N=C(N)NCCC[C@@H]1NC(=O)[C@H](CCCNC(=N)N)NC(=O)[C@@H](Cc2ccc(O)cc2)NC(=N)CNC(=O)[C@H](Cc2ccc3ccccc3c2)NC1=O,inactive,
,7.6 nM,7.6 nM,,CN1C(=O)[C@@H](Cc2ccc(O)cc2)NC(=O)CNC(=O)[C@H](Cc2ccc3ccccc3c2)NC(=O)[C@H](CCCNC(=N)N)NC(=O)[C@H]1CCCNC(=N)N,inactive,
inactive,1.9 nM,1.2 nM,,N=C(N)NCCC[C@@H]1NC(=O)[C@@H](Cc2ccc(O)cc2)NC(=O)CNC(=O)[C@H](Cc2ccc3ccccc3c2)NC(=O)[C@H](CCCNC(=N)N)NC1=N,inactive,
inactive,4.4 nM,6.3 nM,,N=C(N)NCCC[C@@H]1NC(=O)[C@H](CCCNC(=N)N)NC(=O)[C@@H](Cc2ccc(O)cc2)NC(=O)CNC(=O)[C@H](Cc2ccc3ccccc3c2)NC1=N,inactive,
,,,9.4 nM,NC(N)=NCCC[C@@H]1NC(=O)[C@H](CCCN=C(N)N)NC(=O)[C@@H](Cc2ccc(O)cc2)N=C(N)CNC(=O)[C@H](Cc2ccc3ccccc3c2)NC1=O,,Non-toxic
,,,37 nM,CN1C(=O)[C@@H](Cc2ccc(O)cc2)NC(=O)CNC(=O)[C@H](Cc2ccc3ccccc3c2)NC(=O)[C@H](CCCN=C(N)N)NC(=O)[C@H]1CCCN=C(N)N,,
,,,16 nM,NC(N)=NCCC[C@@H]1N=C(N)[C@H](CCCN=C(N)N)NC(=O)[C@@H](Cc2ccc(O)cc2)NC(=O)CNC(=O)[C@H](Cc2ccc3ccccc3c2)NC1=O,,Non-toxic
inactive,2.2 nM,2 nM,,N=C(N)NCCC[C@@H]1NC(=O)[C@H](CCCNC(=N)N)NC(=O)[C@@H](Cc2ccc(O)cc2)NC(=O)CNC(=N)[C@@H](Cc2ccc3ccccc3c2)NC1=O,inactive,
inactive,300 nM,258 nM,,N=C(N)NCCC[C@@H]1NC(=N)[C@@H](Cc2ccc(O)cc2)NC(=O)CNC(=O)[C@H](Cc2ccc3ccccc3c2)NC(=O)[C@H](CCCNC(=N)N)NC1=O,inactive,
,,,334 nM,NC(N)=NCCC[C@@H]1N=C(N)[C@H](Cc2ccc(O)cc2)NC(=O)CNC(=O)[C@H](Cc2ccc3ccccc3c2)NC(=O)[C@H](CCCN=C(N)N)NC1=O,,Non-toxic
,,,679 nM,NC(N)=NCCC[C@@H]1N=C(N)[C@@H](Cc2ccc(O)cc2)NC(=O)CNC(=O)[C@H](Cc2ccc3ccccc3c2)NC(=O)[C@H](CCCN=C(N)N)NC1=O,,Non-toxic
inactive,1.4 nM,1 nM,4.2 nM,N=C(N)NCCC[C@@H]1NC(=O)[C@H](CCCNC(=N)N)NC(=O)[C@@H](Cc2ccc(O)cc2)NC(=O)CNC(=N)[C@H](Cc2ccc3ccccc3c2)NC1=O,inactive,Non-toxic
,,,11 nM,NC(N)=NCCC[C@@H]1NC(=O)[C@@H](Cc2ccc(O)cc2)NC(=O)CNC(=O)[C@H](Cc2ccc3ccccc3c2)N=C(N)[C@H](CCCN=C(N)N)NC1=O,,Non-toxic
,,,4.9 nM,NC(N)=NCCC[C@@H]1NC(=O)[C@H](CCCN=C(N)N)NC(=O)[C@@H](Cc2ccc(O)cc2)NC(=O)CN=C(N)[C@@H](Cc2ccc3ccccc3c2)NC1=O,,Non-toxic
